# Data as given in patent publication US20240115557A1, “INHIBITORS OF RNA-GUIDED NUCLEASES AND USES THEREOF” (The Brigham and Women's Hospital, Inc., priority 2022, published 2024).
# Molecular target: T1, SaCas9 (Staphylococcus aureus, UniProt J7RUA5)
# T1 sequence (J7RUA5 1-1053): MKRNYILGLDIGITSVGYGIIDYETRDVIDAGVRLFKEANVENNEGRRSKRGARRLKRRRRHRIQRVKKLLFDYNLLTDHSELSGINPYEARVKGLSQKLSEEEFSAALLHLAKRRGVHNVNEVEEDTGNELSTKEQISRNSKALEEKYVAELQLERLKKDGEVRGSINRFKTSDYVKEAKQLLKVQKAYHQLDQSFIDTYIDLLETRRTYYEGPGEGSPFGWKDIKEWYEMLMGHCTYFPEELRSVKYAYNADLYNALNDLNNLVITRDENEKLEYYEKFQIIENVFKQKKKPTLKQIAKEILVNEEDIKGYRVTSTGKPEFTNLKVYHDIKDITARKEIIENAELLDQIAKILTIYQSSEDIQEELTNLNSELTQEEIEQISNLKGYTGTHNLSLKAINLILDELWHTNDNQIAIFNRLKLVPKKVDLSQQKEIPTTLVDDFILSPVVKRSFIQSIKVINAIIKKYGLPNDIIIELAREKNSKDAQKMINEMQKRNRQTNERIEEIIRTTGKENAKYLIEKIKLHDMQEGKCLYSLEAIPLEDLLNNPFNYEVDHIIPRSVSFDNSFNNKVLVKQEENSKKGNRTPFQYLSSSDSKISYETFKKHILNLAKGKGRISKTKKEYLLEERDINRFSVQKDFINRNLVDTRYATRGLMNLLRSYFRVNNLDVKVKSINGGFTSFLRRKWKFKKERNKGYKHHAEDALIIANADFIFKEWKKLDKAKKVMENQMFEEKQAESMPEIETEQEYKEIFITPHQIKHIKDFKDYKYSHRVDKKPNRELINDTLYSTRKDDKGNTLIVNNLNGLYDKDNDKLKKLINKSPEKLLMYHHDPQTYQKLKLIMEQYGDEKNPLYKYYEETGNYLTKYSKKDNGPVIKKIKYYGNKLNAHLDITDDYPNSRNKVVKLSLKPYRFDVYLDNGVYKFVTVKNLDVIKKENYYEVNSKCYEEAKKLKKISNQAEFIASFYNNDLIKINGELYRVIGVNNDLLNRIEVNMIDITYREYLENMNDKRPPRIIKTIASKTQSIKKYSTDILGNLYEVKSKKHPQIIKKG
# Test: Strand displacement assay, SaCas9 primary screen
# Assay type: biochemical
# Settings: for Auto Zscore Rep 1 / Auto Zscore Rep 2 / Normalized Zscore Rep 1 / Normalized Zscore Rep 2: SaCas9 primary screen; for Auto Zscore Rep 1 / Normalized Zscore Rep 1: replicate 1; for Auto Zscore Rep 2 / Normalized Zscore Rep 2: replicate 2; for Normalized Zscore Rep 1 / Normalized Zscore Rep 2: weaker potential hits; for 3 sigma Hit: flag 1 = hit at 3 sigma; for 5 sigma Hit: flag 1 = hit at 5 sigma
# Experimental: An overview of the screening for SaCas9 inhibitors is depicted in FIG. 14. A total of 43,168 Compounds were screened from the ICCB Libraries. Libraries screened for the initial compounds include ChemDiv 7 (34,848 cpds), Enamine 1 (5,280 cpds), ChemDiv1 (1,760 cpds), NIH Clinical Collection (450 cpds), Biomol 4—FDA Approved Library (640 cpds). A hit is determined from the Zscore, with 3-5σ being a weak hit, >5σ being a strong hit. The results of the hits include 193 Weak Hits and 249 Strong Hits. The NIH Clinical Collection 1-2014 was screened for 450 of 450 compounds, with 7 hits—1.5%. The Biomol 4—FDA Approved Library was screened for 640 of 640 compounds, with 8 hits—1.2%. […] Enamine 1 was screened for 5,280 of 6,004 compounds, with 44 hits—0.83%. Libraries are commercially available, with reference numbers utilized for compounds identifying the compound structures used. […]
# Generalization of CAA to other Cas nucleases. Applicants sought to generalize CAA to other CRISPR-associated nucleases, including from Staphylococcus aureus (SaCas9). Given the similarities between SaCas9 and SpCas9 modes of DNA-substrate binding and protein folding,^26, 27 Applicants hypothesized that SaCas9-induced strand displacement could be similarly measured. Indeed, fluorescence quenching correlated with substrate cleavage in the CAA assay with active SaCas9:gRNA and an ACGGGT PAM sequence, which was validated with gel electrophoresis (FIG. 62F,G and FIG. 69F).
# First, Applicants optimized various components and conditions of the strand displacement assay for Cas enzyme activity and generality with different Cas such as SpCas9 (FIG. 62B) or SaCas9 (FIG. 69F) or FnCas12a (FIG. 70A,B). Typically, SpCas9: gRNA (1:1.2 ratio) RNP was pre-formed at 1 μM in Cas9 assay buffer (20 mM Tris-HCl, pH=7.5, 100 mM KCl, 5 mM MgCl2) for 5 min at 4° C. before diluting to 10 nM in Cas9 assay buffer (2× final concentration). 25 μL of the Cas9 2× stock was manually dispensed to a black 384-well plate (Corning 3575) using electronic pipette. Apo SpCas9 (without guide RNA) was used at the same concentration as a control for no activity (mock inhibition). Following this, pre-annealed Alexa-Fluor 647 labeled substrate and quencher were also diluted to 1 nM and 5 nM in Cas9 assay buffer, respectively (2× stock solution). Next, 25 μL of the substrate/quencher solution was added manually to each well of the Cas9-containing 384-well plates using an electronic pipette and was incubated at 37° C. for 2.5 h. Fluorescent signals were read with the microplate reader set to read Alexa-Fluor 647 fluorescence. Assay was performed similarly with SaCas9 and FnCas12a using the respective enzyme, gRNA, substrate, and quencher oligos. Applicants similarly divulged the effect of PAM sequences of dsDNA on its assay specificity using TGG, TGC, AAC PAM containing substrates for SpCas9 (FIG. 62C), and ACGGGT, ACGGTT, TGCCCA PAM substrate for SaCas9 (FIG. 62F) and TTTC, TTGC, AAAG PAM substrates for FnCpf1 (FIG. 63B-C). Applicants also optimized the effective concentration of DS-AF647 and SS-AF647 fluorophores (FIG. 64A), DS-substrate to SpCas9 RNP ratio (FIG. 64B) and substrate to quencher ratio (FIG. 64C) on assay performance. Similarly, Applicants performed a time course experiment to establish the time required for maximum completion of the reaction at various substrate to SpCas9 RNP ratios (FIG. 64D).
SMILES,Auto Zscore Rep 1,Auto Zscore Rep 2,Normalized Zscore Rep 1,Normalized Zscore Rep 2,3 sigma Hit,5 sigma Hit
Cc1noc2c1C(c1ccc(O)c(O)c1)C1=C(CC(c3ccccc3)CC1=O)N2 (centres unmarked) [Cpd D588-0186],0.2858,−0.8337,0.2526,0.3021,1,1
Cc1noc2c1C(c1ccc(O)c(O)c1)C1=C(CC(c3ccc(O)cc3)CC1=O)N2 (centres unmarked) [Cpd D588-0188],0.6685,0.2374,0.2133,0.2195,1,1
CCOc1ccc(NC(=O)c2oc3cc(C)ccc3c2C)c2cccnc12 [Cpd D656-0040],−0.413,−1.287,0.4389,0.3581,1,1
Cc1cccc(Nc2nc(C(N)=O)c(NC(=O)c3ccc(F)cc3)s2)c1C [Cpd D686-0236],2.51,1.919,0.2077,0.4936,1,
O=c1oc2c(O)c(O)ccc2c2c1CCC2 [Cpd D715-0012],−0.8066,−0.8068,0.4402,0.5823,1,1
O=c1ccc2ccc(OCc3nnn[nH]3)cc2o1 [Cpd D715-0997],1.322,0.6629,0.2335,0.4628,1,
O=c1oc2cc(OCc3nnn[nH]3)c(Cl)cc2c2c1CCC2 [Cpd D715-1040],0.03234,2.456,0.2698,0.4064,1,1
Cc1ccc(OCc2nn3c(-c4ccoc4C)nnc3s2)cc1 [Cpd D727-0112],−0.1513,−0.2297,0.2865,0.3127,1,1
Cc1ccc(OCc2nn3c(-c4ccoc4C)nnc3s2)cc1C [Cpd D727-0113],1.744,−0.999,0.1802,0.1627,1,
Cc1occc1-c1nnc2sc(COc3ccc(Br)cc3)nn12 [Cpd D727-0114],1.154,−0.6566,0.2766,0.2635,1,1
Fc1ccc(-c2nn3c(CSc4ccccc4)nnc3s2)cc1 [Cpd D727-0190],0.8466,−0.6764,0.2272,0.2685,1,1
COCCc1nnc2n1N=C(c1ccc(Cl)cc1)CS2 [Cpd D727-0342],−0.6224,1.036,0.1633,0.1771,1,
c1ccc(-c2nnc3sc(-c4ccncc4)nn23)nc1 [Cpd D727-0542],−0.3775,1.249,0.1921,0.2295,1,1
Cc1cc(-c2nn3c(C(C)C)nnc3s2)no1 [Cpd D727-0612],−0.2589,−0.2694,0.1368,0.1972,1,
Cc1cc(-c2nn3c(COc4ccccc4)nnc3s2)no1 [Cpd D727-0624],1.24,0.8474,0.2151,0.2232,1,1
Cc1cc(-c2nnc3sc(COc4ccccc4Cl)nn23)[nH]n1 [Cpd D727-0910],0.8719,0.05327,0.2028,0.2126,1,
CC1(C)CC(=O)C2=C(C1)Nc1onc(C(C)(C)C)c1C2c1ccc(O)c(O)c1 (centres unmarked) [Cpd D733-0293],−1.043,2.015,0.4191,0.3634,1,1
CN1C(C(=O)Nc2sc3c(c2C(N)=O)CCCC3)=CC(c2ccc(F)cc2)=NS1(=O)=O [Cpd E135-0568],0.3653,−0.5622,0.1731,0.1458,1,
CC1CCC(NC(=O)C2(C)Cn3c(cc4occc43)C(=O)N2CCN(C)C2CCCCC2)CC1 (centres unmarked) [Cpd E218-0425],−0.4666,0.1007,0.2235,0.1821,1,
CC1(C(=O)NC2CCCCC2)Cn2c(cc3ccccc32)C(=O)N1c1ccc2c(c1)OCCO2 (centres unmarked) [Cpd E234-0056],1.418,1.057,0.2592,0.1597,1,
Cc1sc2c(c1C)CSC(C(=O)Nc1c(C)n(C)n(-c3ccccc3)c1=O)=C2 [Cpd E722-1395],−0.03529,0.492,0.2255,0.1818,1,
